# Data as given in PubChem BioAssay AID180 (DTP/NCI, 2004).
# Values joined by “and” are separate entries in the source; they are usually repeats but may differ in a detail not shown here. Equal values may be shown once.
# Tested on: BDF1 mice, Adenocarcinoma 755 s.c., tumor weight T/C
# Assay: NCI In Vivo Anticancer Drug Screen. Data for tumor model Adenocarcinoma 755 (subcutaneous) in B6D2F1 (BDF1) mice
# Settings: endpoint: mean tumor weight, higher = larger tumour
# How it was run: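 Tumor-bearing mice receive test compound while controls get vehicle alone. Antitumor effect is scored from survival or tumor dimensions as a T/C quotient.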
# [1] = dose: 25.0 mg/kg/injection, schedule: Q01DX011 (ip), vehicle: carboxymethylcellulose (CMC)
# [2] = dose: 50.0 mg/kg/injection, schedule: Q01DX011 (ip), vehicle: other
compound,measurement,setting,value
O=c1[nH]cnc2c1ncn2C1CCCCC1,T/C,"dose: 23.0 mg/kg/injection, schedule: Q01DX011 (ip), vehicle: carboxymethylcellulose (CMC)",93 % of control and 111 % of control
same,T/C,"dose: 23.1 mg/kg/injection, schedule: Q01DX011 (ip), vehicle: carboxymethylcellulose (CMC)",86 % of control
same,T/C,"dose: 23.12 mg/kg/injection, schedule: Q01DX011 (ip), vehicle: carboxymethylcellulose (CMC)",74 % of control
same,T/C,"dose: 46.0 mg/kg/injection, schedule: Q01DX011 (ip), vehicle: carboxymethylcellulose (CMC)",74 % of control and 85 % of control
same,T/C,"dose: 46.2 mg/kg/injection, schedule: Q01DX011 (ip), vehicle: carboxymethylcellulose (CMC)",118 % of control
same,T/C,"dose: 46.25 mg/kg/injection, schedule: Q01DX011 (ip), vehicle: carboxymethylcellulose (CMC)",117 % of control
same,T/C,"dose: 46.25 mg/kg/injection, schedule: Q01DX011 (oral), vehicle: carboxymethylcellulose (CMC)",104 % of control
same,T/C,"dose: 92.5 mg/kg/injection, schedule: Q01DX011 (ip), vehicle: carboxymethylcellulose (CMC)",90 % of control and 99 % of control and 108 % of control
same,T/C,"dose: 92.5 mg/kg/injection, schedule: Q01DX011 (oral), vehicle: carboxymethylcellulose (CMC)",118 % of control
same,T/C,"dose: 185.0 mg/kg/injection, schedule: Q01DX011 (oral), vehicle: carboxymethylcellulose (CMC)",114 % of control
same,T/C,"dose: 370.0 mg/kg/injection, schedule: Q01DX011 (oral), vehicle: carboxymethylcellulose (CMC)",79 % of control
O=c1[nH]c(S(=O)(=O)F)nc2nc[nH]c12,T/C,[1],104 % of control
same,T/C,"dose: 75.0 mg/kg/injection, schedule: Q01DX011 (ip), vehicle: carboxymethylcellulose (CMC)",53 % of control
CCOC(=O)c1ccc(N=NN(C)C)cc1,T/C,"dose: 8.0 mg/kg/injection, schedule: Q01DX011 (ip), vehicle: carboxymethylcellulose (CMC)",92 % of control
same,T/C,"dose: 16.0 mg/kg/injection, schedule: Q01DX011 (ip), vehicle: carboxymethylcellulose (CMC)",94 % of control
same,T/C,"dose: 31.0 mg/kg/injection, schedule: Q01DX011 (ip), vehicle: carboxymethylcellulose (CMC)",113 % of control
same,T/C,"dose: 62.0 mg/kg/injection, schedule: Q01DX011 (ip), vehicle: carboxymethylcellulose (CMC)",95 % of control
CCCCNC(=O)c1n[se]nc1N,T/C,"dose: 2.0 mg/kg/injection, schedule: Q01DX011 (ip), vehicle: carboxymethylcellulose (CMC)",76 % of control
same,T/C,"dose: 4.0 mg/kg/injection, schedule: Q01DX011 (ip), vehicle: carboxymethylcellulose (CMC)",87 % of control
C=C(Br)CN(C)CCO,T/C,[2],85 % of control
same,T/C,"dose: 100.0 mg/kg/injection, schedule: Q01DX011 (ip), vehicle: other",76 % of control
same,T/C,"dose: 200.0 mg/kg/injection, schedule: Q01DX011 (ip), vehicle: other",53 % of control
C=CC(O)CN1CC1C (stereo not given) (tested in a mixture with another compound),T/C,"dose: 1.9 mg/kg/injection, schedule: Q01DX011 (ip), vehicle: methylcellulose (MC)",85 % of control
same,T/C,"dose: 3.75 mg/kg/injection, schedule: Q01DX011 (ip), vehicle: methylcellulose (MC)",100 % of control
same,T/C,"dose: 7.5 mg/kg/injection, schedule: Q01DX011 (ip), vehicle: methylcellulose (MC)",97 % of control
same,T/C,"dose: 15.0 mg/kg/injection, schedule: Q01DX011 (ip), vehicle: methylcellulose (MC)",71 % of control
CCCCn1cnc2c(SC3CCCC3)ncnc21,T/C,[1],38 % of control
same,T/C,"dose: 50.0 mg/kg/injection, schedule: Q01DX011 (ip), vehicle: carboxymethylcellulose (CMC)",13 % of control
same,T/C,"dose: 100.0 mg/kg/injection, schedule: Q01DX011 (ip), vehicle: carboxymethylcellulose (CMC)",4 % of control
same,T/C,"dose: 200.0 mg/kg/injection, schedule: Q01DX011 (ip), vehicle: carboxymethylcellulose (CMC)",3 % of control
C/C(=N\NC(=O)c1ccncc1)c1ccc(F)cc1,T/C,"dose: 30.0 mg/kg/injection, schedule: Q01DX011 (ip), vehicle: methylcellulose (MC)",95 % of control
CC(=O)[C@@]12OC(C)(C)O[C@@H]1C[C@H]1[C@@H]3C[C@H](C)C4=CC(=O)CC[C@]4(C)[C@H]3CC[C@@]12C,T/C,"dose: 56.0 mg/kg/injection, schedule: Q01DX011 (sc), vehicle: steriod suspending solution",28 % of control
same,T/C,"dose: 62.0 mg/kg/injection, schedule: Q01DX011 (sc), vehicle: steriod suspending solution",34 % of control
same,T/C,"dose: 75.0 mg/kg/injection, schedule: Q01DX011 (sc), vehicle: steriod suspending solution",38 % of control
same,T/C,"dose: 113.0 mg/kg/injection, schedule: Q01DX011 (sc), vehicle: steriod suspending solution",46 % of control
same,T/C,"dose: 125.0 mg/kg/injection, schedule: Q01DX011 (sc), vehicle: steriod suspending solution",21 % of control
same,T/C,"dose: 150.0 mg/kg/injection, schedule: Q01DX011 (sc), vehicle: steriod suspending solution",18 % of control
same,T/C,"dose: 225.0 mg/kg/injection, schedule: Q01DX011 (sc), vehicle: steriod suspending solution",24 % of control
same,T/C,"dose: 250.0 mg/kg/injection, schedule: Q01DX011 (sc), vehicle: steriod suspending solution",17 % of control
same,T/C,"dose: 300.0 mg/kg/injection, schedule: Q01DX011 (sc), vehicle: steriod suspending solution",15 % of control
same,T/C,"dose: 450.0 mg/kg/injection, schedule: Q01DX011 (sc), vehicle: steriod suspending solution",35 % of control
same,T/C,"dose: 600.0 mg/kg/injection, schedule: Q01DX011 (sc), vehicle: steriod suspending solution",14 % of control
same,T/C,"dose: 900.0 mg/kg/injection, schedule: Q01DX011 (sc), vehicle: steriod suspending solution",16 % of control
CC(C)CSc1ncnc2nc[nH]c12,T/C,"dose: 6.0 mg/kg/injection, schedule: Q01DX011 (ip), vehicle: other",45 % of control
same,T/C,"dose: 11.0 mg/kg/injection, schedule: Q01DX011 (ip), vehicle: other",19 % of control
same,T/C,"dose: 22.0 mg/kg/injection, schedule: Q01DX011 (ip), vehicle: other",5 % of control
same,T/C,"dose: 31.0 mg/kg/injection, schedule: Q01DX011 (ip), vehicle: other",1 % of control
same,T/C,"dose: 45.0 mg/kg/injection, schedule: Q01DX011 (ip), vehicle: other",7 % of control
NC(=O)CF,T/C,"dose: 2.5 mg/kg/injection, schedule: Q01DX011 (ip), vehicle: other",72 % of control
O=P(Oc1ccccc1)(OP(=O)(Oc1ccccc1)N(CCCl)CCCl)N(CCCl)CCCl (stereo not given),T/C,"dose: 25.0 mg/kg/injection, schedule: Q01DX011 (ip), vehicle: other",82 % of control
same,T/C,[2],66 % of control
O=C(O)CCC(=O)Nc1nccs1,T/C,"dose: 150.0 mg/kg/injection, schedule: Q01DX011 (ip), vehicle: carboxymethylcellulose (CMC)",71 % of control
same,T/C,"dose: 300.0 mg/kg/injection, schedule: Q01DX011 (ip), vehicle: carboxymethylcellulose (CMC)",83 % of control
same,T/C,"dose: 600.0 mg/kg/injection, schedule: Q01DX011 (ip), vehicle: carboxymethylcellulose (CMC)",63 % of control
CC(=O)[C@H]1[C@H](C)C[C@H]2[C@@H]3CCC4=CC(=O)CC[C@]4(C)[C@@]3(F)[C@@H](O)C[C@@]21C,T/C,"dose: 5.31 mg/kg/injection, schedule: Q01DX011 (sc), vehicle: steriod suspending solution",108 % of control
same,T/C,"dose: 6.0 mg/kg/injection, schedule: Q01DX011 (sc), vehicle: steriod suspending solution",62 % of control
same,T/C,"dose: 10.62 mg/kg/injection, schedule: Q01DX011 (sc), vehicle: steriod suspending solution",85 % of control
same,T/C,"dose: 12.0 mg/kg/injection, schedule: Q01DX011 (sc), vehicle: steriod suspending solution",27 % of control
same,T/C,"dose: 21.25 mg/kg/injection, schedule: Q01DX011 (sc), vehicle: steriod suspending solution",86 % of control
same,T/C,"dose: 25.0 mg/kg/injection, schedule: Q01DX011 (sc), vehicle: steriod suspending solution",23 % of control
same,T/C,"dose: 42.5 mg/kg/injection, schedule: Q01DX011 (sc), vehicle: steriod suspending solution",39 % of control and 48 % of control
same,T/C,"dose: 50.0 mg/kg/injection, schedule: Q01DX011 (sc), vehicle: steriod suspending solution",16 % of control
same,T/C,"dose: 85.0 mg/kg/injection, schedule: Q01DX011 (sc), vehicle: steriod suspending solution",17 % of control
same,T/C,"dose: 100.0 mg/kg/injection, schedule: Q01DX011 (sc), vehicle: steriod suspending solution",12 % of control
same,T/C,"dose: 170.0 mg/kg/injection, schedule: Q01DX011 (sc), vehicle: steriod suspending solution",18 % of control
same,T/C,"dose: 340.0 mg/kg/injection, schedule: Q01DX011 (sc), vehicle: steriod suspending solution",18 % of control and 23 % of control
same,T/C,"dose: 680.0 mg/kg/injection, schedule: Q01DX011 (sc), vehicle: steriod suspending solution",8 % of control and 26 % of control
same,T/C,"dose: 1360.0 mg/kg/injection, schedule: Q01DX011 (sc), vehicle: steriod suspending solution",4 % of control
O=C1OC(c2cc(I)c(O)c(I)c2)(c2cc(I)c(O)c(I)c2)c2ccccc21,T/C,"dose: 0.38 mg/kg/injection, schedule: Q01DX011 (ip), vehicle: carboxymethylcellulose (CMC)",107 % of control
same,T/C,"dose: 0.76 mg/kg/injection, schedule: Q01DX011 (ip), vehicle: carboxymethylcellulose (CMC)",68 % of control
same,T/C,"dose: 1.56 mg/kg/injection, schedule: Q01DX011 (ip), vehicle: carboxymethylcellulose (CMC)",68 % of control
CCOC1CCCC(n2cnc3c(Cl)ncnc32)O1 (stereo not given),T/C,"dose: 7.81 mg/kg/injection, schedule: Q01DX011 (ip), vehicle: methylcellulose (MC)",64 % of control
same,T/C,"dose: 15.63 mg/kg/injection, schedule: Q01DX011 (ip), vehicle: methylcellulose (MC)",65 % of control
same,T/C,"dose: 31.25 mg/kg/injection, schedule: Q01DX011 (ip), vehicle: methylcellulose (MC)",43 % of control
same,T/C,"dose: 62.5 mg/kg/injection, schedule: Q01DX011 (ip), vehicle: methylcellulose (MC)",3 % of control and 17 % of control
